In patent US20170354148A1, “SAFENED HERBICIDAL COMPOSITIONS CONTAINING HALAUXIFEN AND METHODS OF USE THEREOF IN BRASSICA SPECIES” (Dow AgroSciences LLC, priority 2016, published 2017):
“And” between values parts separate entries of the source, which are not always exact repeats. Identical values can stand only once.

System: Spring Argentine canola (Brassica napus, BRSNS)
Assay: Example 3 field trials (Canada), postemergence crop safety, visual phytotoxicity
[1] = BRSNS, trial 1, 17DAA1, 150 g ae/ha
[2] = BRSNS, trial 1, 32DAA1, 150 g ae/ha

O=C(O)c1nc(Cl)ccc1Cl [Clopyralid-olamine, 2-hydroxyethanaminium 3,6-dichloro-2-pyridinecarboxylate]
Mean % Visual Injury (BRSNS, 7DAAA, 150 g ae/ha (Tables 10, 11)): 0.0%
Mean % Visual Injury (BRSNS, 15DAAA, 150 g ae/ha (Tables 10, 11)): 1.5%
Mean % Visual Injury (BRSNS, 27DAAA, 150 g ae/ha (Tables 10, 11)): 1.0%
Mean % Visual Injury (BRSNS, 57DAAA, 150 g ae/ha (Tables 10, 11)): 2.0%
Mean % Visual Deformation (BRSNS, 60DAA1, 150 g ae/ha): 0.0%
Mean % Visual Injury (BRSNS, trial 1, 7DAA1, 150 g ae/ha): 1.0%
Mean % Visual Epinasty [1]: 1.0%
Mean % Visual Injury [1]: 1.3%
Mean % Visual Epinasty [2]: 3.5%
Mean % Visual Injury [2]: 7.0%
Mean % Visual Injury (BRSNS, trial 1, 49DAA1, 150 g ae/ha): 2.8%
Mean % Visual Injury (BRSNS, trial 2, 8DAA1, 150 g ae/ha): 1.8% and 2.0% and 1.3% and 1.4% and 1.5% and 1.0%
Mean % Visual Injury (BRSNS, trial 2, 17DAA1, 150 g ae/ha): 2.5%
Mean % Visual Epinasty (BRSNS, trial 2, 35DAA1, 150 g ae/ha): 3.5% and 2.0%
Mean % Visual Injury (BRSNS, trial 2, 48DAA1, 150 g ae/ha): 2.0% and 0.8%
Mean % Visual Epinasty (BRSNS, trial 3, 6DAA1, 150 g ae/ha): 0.0%
Mean % Visual Epinasty (BRSNS, trial 3, 23DAA1, 150 g ae/ha): 0.0%
Mean % Visual Injury (BRSNS, trial 3, 33DAA1, 150 g ae/ha): 0.5% and 1.0%
Mean % Visual Injury (BRSNS, trial 3, 69DAA1, 150 g ae/ha): 0.0%
Mean % Visual Injury (BRSNS, trial 4, 8DAA1, 150 g ae/ha): 1.5%
Mean % Visual Injury (BRSNS, trial 4, 15DAA1, 150 g ae/ha): 1.5%
Mean % Visual Epinasty (BRSNS, trial 4, 17DAA1, 200 g ae/ha): 0.0%
Mean % Visual Injury (BRSNS, trial 4, 41DAA1, 150 g ae/ha): 0.8%
Mean % Visual Injury (BRSNS, trial 4, 82DAA1, 150 g ae/ha): 0.0%
Mean % Visual Injury (BRSNS, trial 5, 7DAA1, 150 g ae/ha): 0.5% and 0.0% and 1.3% and 1.5%
Mean % Visual Injury (BRSNS, trial 5, 15DAA1, 150 g ae/ha): 0.0% and 0.5%
Mean % Visual Injury (BRSNS, trial 5, 36DAA1, 150 g ae/ha): 0.5%
Mean % Visual Injury (BRSNS, trial 5, 79DAA1, 150 g ae/ha): 0.0%
Mean % Visual Injury (BRSNS, trial 6, 6DAA1, 150 g ae/ha): 0.0%
Mean % Visual Injury (BRSNS, trial 6, 23DAA1, 150 g ae/ha): 0.0%
Mean % Visual Injury (BRSNS, trial 6, 33DAA1, 150 g ae/ha): 2.0%
Mean % Visual Injury (BRSNS, trial 6, 59DAA1, 150 g ae/ha): 3.5%
Mean % Visual Injury (BRSNS, trial 7, 17DAA1, 100 g ae/ha): 0.0%
Mean % Visual Injury (BRSNS, trial 7, 17DAA1, 150 g ae/ha): 0.0%
Mean % Visual Injury (BRSNS, trial 7, 17DAA1, 200 g ae/ha): 0.0%
Mean % Visual Injury (BRSNS, trial 7, 27DAA1, 150 g ae/ha): 0.0%
Mean % Visual Injury (BRSNS, trial 7, 27DAA1, 200 g ae/ha): 3.0%
Mean % Visual Injury (BRSNS, trial 8, 7DAA1, 150 g ae/ha): 1.5%
Mean % Visual Injury (BRSNS, trial 8, 57DAA1, 150 g ae/ha): 2.3%
Mean % Visual Injury (BRSNS, trial 9, 27DAA1, 150 g ae/ha): 1.0%
Mean % Visual Injury (BRSNS, trial 9, 60DAA1, 150 g ae/ha): 0.0%
Mean % Visual Injury (Table 15, 7DAAA, halauxifen-methyl 5, clopyralid-olamine 150, quinclorac 101 g ae/ha, alone or mixed): 0.0%
Mean % Visual Injury (Table 15, 15DAAA, halauxifen-methyl 5, clopyralid-olamine 150, quinclorac 101 g ae/ha, alone or mixed): 1.5%
Mean % Visual Injury (Table 15, 27DAAA, halauxifen-methyl 5, clopyralid-olamine 150, quinclorac 101 g ae/ha, alone or mixed): 1.0%
Mean % Visual Injury (Table 15, 57DAAA, halauxifen-methyl 5, clopyralid-olamine 150, quinclorac 101 g ae/ha, alone or mixed): 2.0%
Mean % Visual Injury (Table 17, 7DAAA, halauxifen-methyl 5, clopyralid-olamine 150 g ae/ha alone, or both mixed with isoxadifen-ethyl 5 g ae/ha): 0.0%
Mean % Visual Injury (Table 17, 15DAAA, halauxifen-methyl 5, clopyralid-olamine 150 g ae/ha alone, or both mixed with isoxadifen-ethyl 5 g ae/ha): 1.5%
Mean % Visual Injury (Table 17, 27DAAA, halauxifen-methyl 5, clopyralid-olamine 150 g ae/ha alone, or both mixed with isoxadifen-ethyl 5 g ae/ha): 1.0%
Mean % Visual Injury (Table 17, 57DAAA, halauxifen-methyl 5, clopyralid-olamine 150 g ae/ha alone, or both mixed with isoxadifen-ethyl 5 g ae/ha): 2.0%
Mean % Visual Injury (Table 18, 8DAAA, halauxifen-methyl 5, clopyralid-olamine 150 g ae/ha, alone or mixed): 0.5%
Mean % Visual Injury (Table 18, 14DAAA, halauxifen-methyl 5, clopyralid-olamine 150 g ae/ha, alone or mixed): 0.5%
Mean % Visual Injury (Table 18, 40DAAA, halauxifen-methyl 5, clopyralid-olamine 150 g ae/ha, alone or mixed): 0.0%
Mean % Visual Injury (Table 18, 81DAAA, halauxifen-methyl 5, clopyralid-olamine 150 g ae/ha, alone or mixed): 0.0%
Mean % Visual Injury (Table 19, 8DAAA, halauxifen-methyl 5, clopyralid-olamine 150 g ae/ha alone, or both mixed with isoxadifen-ethyl 20 g ae/ha): 0.5%
Mean % Visual Injury (Table 19, 14DAAA, halauxifen-methyl 5, clopyralid-olamine 150 g ae/ha alone, or both mixed with isoxadifen-ethyl 20 g ae/ha): 0.5%
Mean % Visual Injury (Table 19, 40DAAA, halauxifen-methyl 5, clopyralid-olamine 150 g ae/ha alone, or both mixed with isoxadifen-ethyl 20 g ae/ha): 0.0%
Mean % Visual Injury (Table 19, 81DAAA, halauxifen-methyl 5, clopyralid-olamine 150 g ae/ha alone, or both mixed with isoxadifen-ethyl 20 g ae/ha): 0.0%
Mean % Visual Injury (Table 22, 8DAAA, halauxifen-methyl 5, clopyralid-olamine 150, quinclorac 101 g ae/ha, alone or mixed): 0.5%
Mean % Visual Injury (Table 22, 14DAAA, halauxifen-methyl 5, clopyralid-olamine 150, quinclorac 101 g ae/ha, alone or mixed): 0.5%
Mean % Visual Injury (Table 22, 40DAAA, halauxifen-methyl 5, clopyralid-olamine 150, quinclorac 101 g ae/ha, alone or mixed): 0.0%
Mean % Visual Injury (Table 22, 81DAAA, halauxifen-methyl 5, clopyralid-olamine 150, quinclorac 101 g ae/ha, alone or mixed): 0.0%
Mean % Visual Injury (Table 23, 7DAAA, halauxifen-methyl 5, clopyralid-olamine 150 g ae/ha, alone or mixed): 2.0%
Mean % Visual Injury (Table 23, 17DAAA, halauxifen-methyl 5, clopyralid-olamine 150 g ae/ha, alone or mixed): 1.0%
Mean % Visual Injury (Table 23, 32DAAA, halauxifen-methyl 5, clopyralid-olamine 150 g ae/ha, alone or mixed): 2.0%
Mean % Visual Injury (Table 23, 49DAAA, halauxifen-methyl 5, clopyralid-olamine 150 g ae/ha, alone or mixed): 0.8%
Mean % Visual Injury (Table 24, 7DAAA, halauxifen-methyl 5, clopyralid-olamine 150 g ae/ha alone, or both mixed with isoxadifen-ethyl 20 g ae/ha): 2.0%
Mean % Visual Injury (Table 24, 17DAAA, halauxifen-methyl 5, clopyralid-olamine 150 g ae/ha alone, or both mixed with isoxadifen-ethyl 20 g ae/ha): 1.0%
Mean % Visual Injury (Table 24, 32DAAA, halauxifen-methyl 5, clopyralid-olamine 150 g ae/ha alone, or both mixed with isoxadifen-ethyl 20 g ae/ha): 2.0%
Mean % Visual Injury (Table 24, 49DAAA, halauxifen-methyl 5, clopyralid-olamine 150 g ae/ha alone, or both mixed with isoxadifen-ethyl 20 g ae/ha): 0.8%
